# Laboratory results reported in publication PMC11409218, “Metal(triphenylphosphine)-atovaquone Complexes: Synthesis, Antimalarial Activity, and Suppression of Heme Detoxification” (Inorganic Chemistry, 2024).
# Where two headings read alike, the source gives them in different places.
# What was measured:
# [1] = system: P. falciparum 3D7 (CQ-susceptible strain); assay: Antiplasmodial activity, asexual blood stages, HRP2 ELISA-based assay, 3D7 strain; type: cell-based, Plasmodium falciparum; conditions: for IC50: CQ-susceptible 3D7 strain, 72 h drug incubation, mean of five to seven experiments, read-out: P. falciparum IC50 (±SEM), 3D7
# Text: We determined the half-maximal inhibitory concentration (IC50) of the complexes against asexual blood stages of P. falciparum using CQ-susceptible and CQ-resistant strains (Table 2). […]. Two strains were selected for the tests: the CQ-susceptible 3D7 strain (isolated in West Africa; obtained from MR4, VA, USA), and the CQ-resistant W2 strain (isolated in Indochina; obtained from MR4, VA, USA). Both were maintained in culture in RPMI 1640 (Invitrogen, Paisley, UK), supplemented with 10% human serum (Abcys S.A. Paris, France), and buffered with 25 mM HEPES and 25 mM NaHCO3. Parasites were grown in A-positive human blood (Etablissement Français du Sang, Marseille, France) in controlled atmospheric conditions that consisted of 10% O2, 5% CO2, and 85% N2 at 37 °C with 95% humidity. […]
# For in vitro isotopic microtests, 25 μL/well of antimalarial drug and 200 μL/well of parasitized red blood cell suspension (final parasitemia 0.5%, final hematocrit 1.5%) were distributed into 96-well plates. The plates were incubated for 72 h at 37 °C in 85% N2, 10% O2, 5% CO2. After freezing and then thawing, the hemolyzed cultures were homogenized by vortexing the plates. The drug susceptibility assay was performed using the HRP2 ELISA-based assay of the Malaria Ag Celisa kit (ref KM2159, Cellabs PTY LDT, Brookvale, Australia), as described previously.[72] […] […]. IC50 are expressed as means of at least 5 to 7 independent experiments.
# [2] = Buffer–n-octanol distribution coefficient (shaking flask method)
# Method: The distribution coefficient (Log D), a proxy parameter to estimate drug lipophilicity, was assessed for ATV and its metal complexes 1–3.
# Buffer–n-octanol distribution coefficients were determined using the shaking flask method.[73] A UV–vis calibration curve was prepared in the 10–100 μM range in n-octanol. […] The concentration of complex in n-octanol was measured spectrophotometrically in order to determine values of D = [compound] (in n-octanol)/[compounds] (in buffer).[66],[67]
# [3] = Interaction with ferriprotoporphyrin IX, spectroscopic titration of Soret band at 402 nm; type: binding; conditions: for log K (association constant of drug binding to hemin): pH 7.4, 40% aqueous DMSO, 1:1 complexation model, mean and SEM of three experiments; for hypochromic effect on the Soret band of hemin: until saturation point, 402 nm
# Method: The association constants (Log K) of the compounds with hemin were determined at pH 7.4 using a 1:1 complexation model with the equation proposed by Egan et al.[52] for the nonlinear least-squares fitting (Figure 2, Table 2).
# Following a procedure described in the literature,[52] the association constant (Log K) of the drugs with ferriprotoporphyrin IX was determined in 40% aqueous DMSO. A stock solution of hemin chloride was prepared by adding 3.5 mg hemin to 10 mL DMSO and adjusted to pH 7.5. A working solution of hemin in 40% DMSO was further prepared by mixing 140 μL hemin stock solution, 5 mL distilled water, 3.86 mL DMSO, and 1 mL 0.2 M Tris (tris(hydroxymethyl)aminomethane) buffer. Aliquots of compounds were added to this working hemin solution. Blank solutions containing only hemin or compounds were prepared to subtract the absorbance of the compounds. […] Binding affinity was determined using the equation A = (A0 + A∞K[C])/(1 + K[C]) for a 1:1 complexation model using nonlinear least-squares fitting, where A0 is the absorbance of Fe(III)PPIX, A∞ is the absorbance of the compound–hemin adduct at saturation, and K is the association constant. Three independent experiments were performed.
# [4] = system: P. falciparum W2 (CQ-resistant strain); assay: Antiplasmodial activity, asexual blood stages, HRP2 ELISA-based assay, W2 strain; type: cell-based, Plasmodium falciparum; conditions: CQ-resistant W2 strain, 72 h drug incubation, mean of five to seven experiments, read-out: P. falciparum IC50 (±SEM), W2
# Method: The potency of the metal complexes to inhibit parasite growth was also examined in comparison with ATV.
# The two strains were synchronized twice with sorbitol before use,[69] and clonality was verified every 15 days through PCR genotyping of the polymorphic genetic markers msp1 and msp2 and microsatellite loci.[70],[71] Compounds were resuspended in DMSO and then diluted in RPMI-DMSO (99v/1v) to obtain final concentrations ranging from 0.25 to 20000 nM.
# After freezing and then thawing, the hemolyzed cultures were homogenized by vortexing the plates. The drug susceptibility assay was performed using the HRP2 ELISA-based assay of the Malaria Ag Celisa kit (ref KM2159, Cellabs PTY LDT, Brookvale, Australia), as described previously.[72]
# [5] = system: HepG2 cells; assay: Cytotoxicity in mammalian cells (CellTiter-Glo), HepG2; type: cell-based; conditions: HepG2 human hepatocellular carcinoma line; 72 h drug incubation; mean of three experiments; read-out: mammalian cells CC50 (±SEM), HepG2
# Method: Cell lines J774 and HepG2 were incubated with the drug for 72 h, the same time frame as employed to determine antimalarial activity. Cytotoxicity was evaluated in parallel with ATV as a representative parental drug, while doxorubicin was used as a standard cytotoxic drug. These experiments were also used to estimate the in vitro selectivity index (Table 2).
# Doxorubicin chloridrate (Eurofarma, São Paulo, Brazil) was used as a positive control, while untreated cells were employed as negative controls. Bioluminescence readings were performed using a Filtermax F5Multi-Mode instrument (Molecular Devices, Sunnyvale, CA) using the CellTiter-Glo kit (Promega Corporation, Madison, USA). Three independent experiments were performed and CC50 values were calculated.
IC50 ([1]; Plasmodium falciparum) [nM],logD at 18 h ([2]; pH 5),logD at 18 h ([2]; pH 7),IC50 ([4]; Plasmodium falciparum) [nM],Compound,Selectivity index (S.I.) ([1]; CC50 (J774)/IC50(3D7)),log K (association constant of drug binding to hemin) [3],hypochromic effect on the Soret band of hemin [3] [%],IC50 [1] [nM],log D pH 5 ([2]; pH 5),log D pH 7 ([2]; pH 7),CC50 [5] [nM],IC50 [4] [nM]
2.4 ± 1.2,-1.17,-1.15,2.1 ± 0.9,"O=C1C(O)=C([C@H]2CC[C@H](c3ccc(Cl)cc3)CC2)C(=O)c2ccccc21 [ATV, atovaquone]",8250,3.64 ± 0.10,42,–,–,–,–,–
–,–,–,–,"O=C1C([O][Cu]([PH](c2ccccc2)(c2ccccc2)c2ccccc2)[PH](c2ccccc2)(c2ccccc2)c2ccccc2)=C([C@H]2CC[C@H](c3ccc(Cl)cc3)CC2)C(=O)c2ccccc21 [Complex 3, [Cu(ATV)(PPh3)2]]",–,3.97 ± 0.01,38,30.7 ± 10.7,–5.18,1.06,44300 ± 7700,26.3 ± 6.9
–,–,–,–,[Ag(ATV)(PPh3)2] [Complex 1],–,4.33 ± 0.05,37,30.5 ± 9.7,–2.12,0.08,14600 ± 900,26.5 ± 7.8
–,–,–,–,[Au(ATV)(PPh3)]·2H2O [Complex 2],–,4.46 ± 0.01,51,8.1 ± 2.7,–1.87,–1.71,8900 ± 2700,5.2 ± 2.2
